The record followed here is ChEMBL document CHEMBL1144820, “Bipinnatins K-Q, minor cembrane-type diterpenes from the West Indian Gorgonian Pseudopterogorgia kallos: isolation, structure assignment, and evaluation of biological activities” (J Nat Prod, 2008).

Molecules are shown by their SMILES.

In general, IC50 refers to the point on the concentration scale where inhibition reaches its midpoint. Broadly, the GI50 is the concentration that inhibits growth by half. Higher therefore signals lower sensitivity of the cells. One may read the inhibition as how much of the control response was suppressed. The low end stands for little suppression, the high end for strong suppression.

For one assay, the system named is Plasmodium falciparum. In words: Antimicrobial activity against chloroquine-resistant Plasmodium falciparum. In kind it is functional, organism-based.
Assay [1] can be described thus: Inhibition of Aplysia californica nicotinic acetylcholine receptor.
In the next assay the test system is CCRF-CEM. The assay is described as follows: Cytotoxicity against human CCRF-CEM cells. In kind it is functional.
The next assay concerns SR. In words: Cytotoxicity against human SR cells. In kind it is functional.
The test system of another assay is RPMI-8226. The assay is described as follows: Cytotoxicity against human RPMI8226 cells. It is filed as functional.
Another assay has as its system MOLT-4. In words: Cytotoxicity against human MOLT4 cells. In kind it is functional.
Assay [2] relates to Mycobacterium tuberculosis. In words: Antimicrobial activity against Mycobacterium tuberculosis H37Rv at 128 ug/ml. It is filed as functional.

In the assay with Plasmodium falciparum, `C=C(C)[C@@H]1CCC2=C[C@H](C[C@@]3(C)O[C@@H]3[C@]3(O)C=C(C)C(=O)[C@H]1O3)OC2=O` [BIPINNATIN N] yielded an IC50 greater than 10 µg/mL.
Consider `C=C(C=O)[C@H]1CC2=C(C(=O)OC)C=C(O2)[C@H]2O[C@]2(C)C[C@@H]2OC(=O)[C@]3(O[C@@H]23)[C@H](OC(C)=O)C1` [BIPINNATIN E], for which the IC50 in assay [1] was found to be 0.23 µM.
On to `C=C(C=O)[C@H]1CC(=O)[C@@H](C(=O)OC)[C@@H]2O[C@@](C)(CC2=O)C[C@@H]2OC(=O)[C@]3(O[C@@H]23)[C@@H](OC(C)=O)C1` [BIPINNATIN Q], for which the GI50 with CCRF-CEM came out at 5.8 µM; in the assay on SR, 2.6 µM; with RPMI-8226, 4.1 µM; in the assay with MOLT-4 it was 4.2 µM. Further, the IC50 in the assay on Plasmodium falciparum is greater than 10 µg/mL.
In the case of `C=C(C(=O)OC)[C@@H]1C[C@@H](OC(C)=O)C2=C[C@H](C[C@@]3(C)O[C@@H]3[C@@]3(O)C=C(C)[C@](O)(O3)[C@H]1OC(C)=O)OC2=O` [BIPINNATIN M], in the assay with Plasmodium falciparum, the IC50 is greater than 10 µg/mL. The same compound registered an inhibition at 128 µg/mL in assay [2] of 20%.
